In patent publication US12123010B2, “Plants having increased tolerance to herbicides” (BASF SE, priority 2017, dated 2024):

Tests used:
[1] = tested on: Transgenic T2 Arabidopsis plants harboring PPO inhibitor tolerance trait; assay: Lab based germination assay in 48-well plates (Table i); format: in vivo, Arabidopsis thaliana; settings: construct AMATU_PPO2_TP_hemG (Escherichia coli); in comparison to wild type plants
[2] = tested on: Transgenic T2 Arabidopsis plants and ARBTH WT MC24 non-transgenic; assay: Greenhouse post spray test, injury 14 DAT (Tables ii, iii); format: in vivo, Arabidopsis thaliana; settings: Arabidopsis thaliana, 336 h, Table ii;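 note: value is percent injury to the sprayed plants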
[3] = AMATU_PPO2_WT event Q, 1 g ai/ha
[4] = AMATU_PPO2_WT event Q, 5 g ai/ha
[5] = AMATU_PPO2_WT event Q, 10 g ai/ha
[6] = AMATU_PPO2_WT event Q, 30 g ai/ha
[7] = ARBTH WT MC24 non-transgenic, 1 g ai/ha + 1% MSO
[8] = ARBTH WT MC24 non-transgenic, 5 g ai/ha + 1% MSO
[9] = ARBTH WT MC24 non-transgenic, 10 g ai/ha + 1% MSO
[10] = ARBTH WT MC24 non-transgenic, 30 g ai/ha + 1% MSO
[11] = ARBTH WT MC24 non-transgenic, 80 g ai/ha + 1% MSO
[12] = ARBTH_PPO1_S305L_Y426M event O, 5 g ai/ha
[13] = ARBTH_PPO1_S305L_Y426M event O, 10 g ai/ha
[14] = ARBTH_PPO1_S305L_Y426M event O, 30 g ai/ha
[15] = ARBTH_PPO1_S305L_Y426M event O, 80 g ai/ha
[16] = ARBTH_PPO1_WT event Q, 1 g ai/ha
[17] = ARBTH_PPO1_WT event Q, 5 g ai/ha
[18] = ARBTH_PPO1_WT event Q, 10 g ai/ha
[19] = ARBTH_PPO1_WT event Q, 30 g ai/ha

| Compound | Tolerance Factor [1] | pest or weed control at 1 g/ha [2, 3] [%] | pest or weed control at 5 g/ha [2, 4] [%] | pest or weed control at 10 g/ha [2, 5] [%] | pest or weed control at 30 g/ha [2, 6] [%] | pest or weed control at 1 g/ha [2, 7] [%] | pest or weed control at 5 g/ha [2, 8] [%] | pest or weed control at 10 g/ha [2, 9] [%] | pest or weed control at 30 g/ha [2, 10] [%] | pest or weed control at 80 g/ha [2, 11] [%] | pest or weed control at 5 g/ha [2, 12] [%] | pest or weed control at 10 g/ha [2, 13] [%] | pest or weed control at 30 g/ha [2, 14] [%] | pest or weed control at 80 g/ha [2, 15] [%] | pest or weed control at 1 g/ha [2, 16] [%] | pest or weed control at 5 g/ha [2, 17] [%] | pest or weed control at 10 g/ha [2, 18] [%] | pest or weed control at 30 g/ha [2, 19] [%] |
| --- | --- | --- | --- | --- | --- | --- | --- | --- | --- | --- | --- | --- | --- | --- | --- | --- | --- | --- |
| Cn1c(C(F)(F)F)cc(=O)n(-c2nc(Oc3cccnc3OCC(=O)O)c(Cl)cc2F)c1=O [Uracilpyridine 3, 2-[[3-[[3-chloro-5-fluoro-6-[3-methyl-2,6-dioxo-4-(trifluoromethyl)pyrimidin-1-yl]-2-pyridyl]oxy]-2-pyridyl]oxy]acetic acid] | 1600 | 48 | 80 | 100 | 100 | 88 | 100 | 100 | 100 | 100 | 0 | 0 | 49 | 13 | 10 | 83 | 98 | 100 |
| Cn1c(C(F)(F)F)cc(=O)n(-c2nc(Oc3ccccc3OCC(=O)O)c(Cl)cc2F)c1=O [Uracilpyridine 5, 2-[2-[[3-chloro-5-fluoro-6-[3-methyl-2,6-dioxo-4-(trifluoromethyl)pyrimidin-1-yl]-2-pyridyl]oxy]phenoxy]acetic acid] | 1400 | 28 | 90 | 100 | 100 | 100 | 100 | 100 | 100 | 100 | 0 | 0 | 68 | 73 | 45 | 90 | 99 | 100 |
